Test system: TNF-α production
Assay: Inhibitory effects on TNF-α production induced by lipopolysaccharide (LPS) stimulation, in vivo test
Set-up: species or system rat
Conditions: Rattus norvegicus, 2 h; female rats, oral administration of 3 mg/kg immediately after LPS to footpad; plasma TNF-α (ELISA) two hours after LPS; read-out: Inhibition rate (%) of TNF-α production
Procedure: Inhibitory effects on TNF-α production induced by lipopolysaccharide (LPS) stimulation were studied by in vivo tests according to the method of Tsuji et al. (Inflamm res. 46 (1997) 193-198).
Female rats (five per group), body weight of about 200 g, about eight weeks old, were used as test animals. LPS from Salmonella was dissolved in physiological saline to prepare an LPS solution (1 mg/ml). Each test substance was dissolved or uniformly suspended in a 1% methylcellulose solution to give test substance-preparation liquids.
The above-mentioned LPS solution (0.5 ml/kg) was administered to a footpad of the rat. Immediately after the LPS administration, the test substance-preparation liquid (containing 10 mg/kg or 3 mg/kg test substance) was orally administered. Two hours after the LPS administration, blood was collected from abdominal aorta and was centrifuged at 4° C. and 3000 rpm for ten minutes. TNF-α levels in the obtained plasma were measured with a rat TNF-α-specific ELISA kit. TNF-α was not observed in the plasma with respect to an LPS-non-administered group (control).
Inhibition rates of TNF-α production of the test substances were determined by the following equation. Inhibition rate (%)=[(A−B)/A]×100 A: TNF-α level in plasma of test substance-nonadministered group B: TNF-α level in plasma of test substance-administered group (Results)

SMILES	inhibition in vivo at 3 mg/kg [%]
CCCCCN(CCC12CC3CC(CC(C3)C1)C2)C(=O)NC[C@@H]1C[C@@H]1c1ccncc1 (relative stereo) [Compound No. 15-1, cis 1-[2-(1-Adamantyl)ethyl]-1-pentyl-3-[2-(4-pyridyl)cyclopropylmethyl]urea]	73.8
CCCCN(CCCC)C(=O)NCCCc1ccncc1 [Compound No. 1-10, 1,1-Dibutyl-3-[3-(4-pyridyl)propyl]urea]	63

Same assay, conditions: Rattus norvegicus, 2 h; female rats, oral administration of 10 mg/kg immediately after LPS to footpad; plasma TNF-α (ELISA) two hours after LPS; read-out: Inhibition rate (%) of TNF-α production

SMILES	inhibition in vivo at 10 mg/kg [%]
CCCCCN(CCC12CC3CC(CC(C3)C1)C2)C(=O)NCC(C)Cc1ccncc1 (single isomer, unassigned; (-)) [Compound No. 1-120, (−)-1-[2-(1-Adamantyl)ethyl]-3-[2-methyl-3-(4-pyridyl)propyl]-1-pentylurea]	95.1
CCCCCN(CCC12CC3CC(CC(C3)C1)C2)C(=O)NCCCc1ccncc1 [Compound No. 1-1, 1-[2-(1-Adamantyl)ethyl]-1-pentyl-3-[3-(4-pyridyl)propyl]urea]	92.1
N#CCN(CCC12CC3CC(CC(C3)C1)C2)C(=O)NCCCc1ccncc1 [Compound No. 1-20, 1-[2-(1-Adamantyl)ethyl]-1-cyanomethyl-3-[3-(4-pyridyl)propyl]urea]	60
CN(CCN(CCC12CC3CC(CC(C3)C1)C2)C(=O)NCCCc1ccncc1)C(=O)OC(C)(C)C [Compound No. 1-26, 1-[2-(1-Adamantyl)ethyl]-1-[2-[N-(t-butoxycarbonyl)-N-methylamino]ethyl]-3-[3-(4-pyridyl)propyl]urea]	95.5
O=C(NCCCc1ccncc1)N(CCC12CC3CC(CC(C3)C1)C2)OCc1ccccc1 [Compound No. 1-28, 1-[2-(1-Adamantyl)ethyl]-1-benzyloxy-3-[3-(4-pyridyl)propyl]urea]	90.4
CCCN(CCCC12CC3CC(CC(C3)C1)C2)C(=O)NCCCc1ccncc1 [Compound No. 1-35, 1-[3-(1-Adamantyl)propyl]-1-propyl-3-[3-(4-pyridyl)propyl]urea]	82.5
Cc1nc(CN(CCC23CC4CC(CC(C4)C2)C3)C(=O)NCCCc2ccncc2)cs1 [Compound No. 1-37, 1-[2-(1-Adamantyl)ethyl]-1-(2-methylthiazol-4-yl)methyl-3-[3-(4-pyridyl)propyl]urea]	84.3
CCCCCN(CCCCC)C(=O)NCCCc1ccncc1 [Compound No. 1-38, 1,1-Dipentyl-3-[3-(4-pyridyl)propyl]urea]	92.3

Test system: not given
Assay: not given
Conditions: not given

melting point [°C]	SMILES
93 to 98	CCCCCN(CCC12CC3CC(CC(C3)C1)C2)C(=O)NCCC(C)c1ccncc1 (centres unmarked) [Compound No. 1-104, 1-[2-(1-Adamantyl)ethyl]-1-pentyl-3-[3-(4-pyridyl)butyl]urea]
142.6 to 145	O=C(NCCCc1ccncc1)N(CCCC(F)(F)F)CCC12CC3CC(CC(C3)C1)C2 [Compound No. 1-105, 1-[2-(1-Adamantyl)ethyl]-3-[3-(4-pyridyl)propyl]-1-(4,4,4-trifluorobutyl)urea]
116.9 to 118.9	O=C(NCCCc1ccncc1)N(CCCCC(F)(F)F)CCC12CC3CC(CC(C3)C1)C2 [Compound No. 1-106, 1-[2-(1-Adamantyl)ethyl]-3-[3-(4-pyridyl)propyl]-1-(5,5,5-trifluoropentyl)urea]
72 to 77	CCCCCN(CCC12CC3CC(CC(C3)C1)C2)C(=O)NCC(CC)Cc1ccncc1 (centres unmarked) [Compound No. 1-108, 1-[2-(1-Adamantyl)ethyl]-1-pentyl-3-[2-(4-pyridylmethyl)butyl]urea]
106.2 to 107.3	O=C(NCCCc1ccncc1)N(CCC12CC3CC(CC(C3)C1)C2)CC(F)(F)F [Compound No. 1-114, 1-[2-(1-Adamantyl)ethyl]-3-[3-(4-pyridyl)propyl]-1-(2,2,2-trifluoroethyl)urea]
79.8 to 80.4	CCCCN(CCCC12CC3CC(CC(C3)C1)C2)C(=O)NCCCc1ccncc1 [Compound No. 1-122, 1-[3-(1-Adamantyl)propyl]-1-butyl-3-[3-(4-pyridyl)propyl]urea]
88.9 to 90	O=C(NCCCc1ccncc1)N(CCCC12CC3CC(CC(C3)C1)C2)CC(F)(F)F [Compound No. 1-123, 1-[3-(1-Adamantyl)propyl]-3-[3-(4-pyridyl)propyl]-1-(2,2,2-trifluoroethyl)urea]
92.7 to 93.7	CCN(CCCCC12CC3CC(CC(C3)C1)C2)C(=O)NCCCc1ccncc1 [Compound No. 1-124, 1-[4-(1-Adamantyl)butyl]-1-ethyl-3-[3-(4-pyridyl)propyl]urea]
110 to 110.5	CCCN(CCCCC12CC3CC(CC(C3)C1)C2)C(=O)NCCCc1ccncc1 [Compound No. 1-125, 1-[4-(1-Adamantyl)butyl]-1-propyl-3-[3-(4-pyridyl)propyl]urea]
133.9 to 134.5	CCCCCN(CCC12CC3CC(CC(C3)C1)C2)C(=O)NCCNc1ccncc1 [Compound No. 1-126, 1-[2-(1-Adamantyl)ethyl]-1-pentyl-3-[2-(4-pyridylamino)ethyl]urea]
96 to 98	CCCN(CCCC12CC3CC(CC(C3)C1)C2)C(=O)NCc1ccncc1 [Compound No. 1-128, 1-[3-(1-Adamantyl)propyl]-1-propyl-3-(4-pyridyl)methylurea]
97.5 to 98.2	CCN(CCCC12CC3CC(CC(C3)C1)C2)C(=O)NCCCc1ccncc1 [Compound No. 1-130, 1-[3-(1-Adamantyl)propyl]-1-ethyl-3-[3-(4-pyridyl)propyl]urea]
82.5 to 84.9	CCCCCN(CCC12CC3CC(CC(C3)C1)C2)C(=O)NCC(C)(C)Cc1ccncc1 [Compound No. 1-135, 1-[2-(1-Adamantyl)ethyl]-3-[2,2-dimethyl-3-(4-pyridyl)propyl]-1-pentylurea]
164.9 to 167.2	CN(CCN(CCC12CC3CC(CC(C3)C1)C2)C(=O)NCCCc1ccncc1)S(C)(=O)=O [Compound No. 10-4, 1-[2-(1-Adamantyl)ethyl]-1-[2-[N-methyl-N-(methylsulfonyl)amino]ethyl]-3-[3-(4-pyridyl)propyl]urea]
148 to 149	CCCN(CCCC12CC3CC(CC(C3)C1)C2)C(=O)NCCCc1ccncc1.O=P(O)(O)O [Compound No. 13-10, 1-[3-(1-Adamantyl)propyl]-1-propyl-3-[3-(4-pyridyl)propyl]urea phosphate]

The next lines start with the compound.

SMILES	melting point [°C]
CCCCCN(CCC12CC3CC(CC(C3)C1)C2)C(=O)NCC(Cc1ccccc1)Cc1ccncc1 (centres unmarked) [Compound No. 1-109, 1-[2-(1-Adamantyl)ethyl]-3-[2-benzyl-3-(4-pyridyl)propyl]-1-pentylurea]	111 to 116
CCCCCN(CCC12CC3CC(CC(C3)C1)C2)C(=O)NCC(Cc1ccncc1)Cc1ccncc1 [Compound No. 1-110, 1-[2-(1-Adamantyl)ethyl]-3-[2,2-bis(4-pyridylmethyl)ethyl]-1-pentylurea]	124 to 136
CCCCCN(CCC12CC3CC(CC(C3)C1)C2)C(=O)NC/C=C/c1ccncc1 [Compound No. 1-112, (E)-1-[2-(1-Adamantyl)ethyl]-1-pentyl-3-[3-(4-pyridyl)-2-propenyl]urea]	90 to 118
CCCCCN(CCc1ccccc1)C(=O)NCC(C)Cc1ccncc1 (centres unmarked) [Compound No. 1-115, 3-[2-Methyl-3-(4-pyridyl)propyl]-1-pentyl-1-phenethylurea]	49 to 50
CC(CNC(=O)N(CCC(F)(F)F)CCC12CC3CC(CC(C3)C1)C2)Cc1ccncc1 (centres unmarked) [Compound No. 1-117, 1-[2-(1-Adamantyl)ethyl]-3-[2-methyl-3-(4-pyridyl)propyl]-1-(3,3,3-trifluoropropyl)urea]	81.1 to 84.1
CCCN(CC(=O)NC12CC3CC(CC(C3)C1)C2)C(=O)NCCCc1ccncc1 [Compound No. 1-132, 1-(1-Adamantyl)aminocarbonylmethyl-1-propyl-3-[3-(4-pyridyl)propyl]urea]	132 to 132.5
OCCN(CCc1ccccc1)C(=S)NCCCc1ccncc1 [Compound No. 7-2, 1-(2-Hydroxyethyl)-1-phenethyl-3-[3-(4-pyridyl)propyl]thiourea]	105.6 to 107.1
CN(CCN(CCC12CC3CC(CC(C3)C1)C2)C(=O)NCCCc1ccncc1)C(=O)CC(C)(C)C [Compound No. 10-6, 1-[2-(1-Adamantyl)ethyl]-1-[2-[N-(3,3-dimethylbutyryl)-N-methylamino]ethyl]-3-[3-(4-pyridyl)propyl]urea]	101.4 to 102.4
CC(C)(C)OC(=O)NCCN(CCC12CC3CC(CC(C3)C1)C2)C(=O)NCCCc1ccncc1 [Compound No. 10-8, 1-[2-(1-Adamantyl)ethyl]-1-[2-[N-(t-butoxycarbonyl)amino]ethyl]-3-[3-(4-pyridyl)propyl]urea]	158 to 160.5
CN(CCN(CCC12CC3CC(CC(C3)C1)C2)C(=O)NCCCc1ccncc1)C(=O)OC(C)(C)C(Cl)(Cl)Cl [Compound No. 10-10, 1-[2-(1-Adamantyl)ethyl]-1-[2-[N-(1,1-dimethyl-2,2,2-trichloroethoxycarbonyl)-N-methylamino]ethyl]-3-[3-(4-pyridyl)propyl]urea]	47 to 52
